Data as given in a melting point compilation (Tetko et al.; mined from patent text by program, amines drawn as free bases though some values may be those of a salt).
Residues, ends and D or L forms follow the SMILES beside them. *: point of attachment. Cbz = O=C(OCc1ccccc1)*; Boc = CC(C)(C)OC(=O)*

| melting point | Compound |
| --- | --- |
| 99 to 101 °C | Clc1ccc(-c2nc3n(c2Cl)CCCC3)c(Cl)c1 |
| 234 to 235 °C | CNC(=O)c1ccc(N2CCN(Cc3cc4c(c(OC)c3)OCC(=O)N4)CC2)c(C)c1 |
| 170 to 171 °C | O=C(Nc1ccc(F)cc1)C12CC3CC(CC(C3)C1)C2 |
| 129 to 132 °C | CCC(CC)n1nnc2c([N+](=O)[O-])cccc21 |
| 154 °C | CN(C)n1c(=O)c2ccccc2n(C)c1=O |
| 89 to 92 °C | Cc1cccc(-c2n[nH]cc2-c2ccc(F)c(-c3csc(CO)n3)c2)n1 |
| 85.4 to 87.2 °C | CC(C)(C)OC(=O)N1c2ccccc2CC1COc1ccc(CC2SC(=O)N(C(c3ccccc3)(c3ccccc3)c3ccccc3)C2=O)cc1 (stereo not drawn) |
| 155 to 157 °C | C#Cc1ccc(Nc2c(C(=O)NOCCO)ccc(F)c2F)c(Cl)c1 |
| 94 °C | CCC(O)CN1CCC(CCN2CCN(c3cccc(Cl)c3Cl)CC2)CC1 (stereo not drawn) |
| 73 to 74 °C | OCC1OC(OCc2ccccc2)C(OCc2ccccc2)C1O (stereo not drawn) |
| 143 to 144 °C | O=c1cc(-c2cc[nH]n2)oc2ccccc12 |
| 130 to 145 °C | Cc1nc(C(Cl)(Cl)Cl)nc(O)c1Cl |
| 168 to 170 °C | Cc1n[nH]c2c1C(=O)CC(c1ccccc1Cl)C2 (stereo not drawn) |
| 73 to 75 °C | CC(C(=O)O)c1ccc(N)c(C(F)(F)F)c1 (stereo not drawn) |
| 117 to 118 °C | C=C[C@]1(C)C(=O)N(C)[C@H](C(C)(C)C)N1C(=O)c1ccccc1 |
| 97 to 99 °C | CC(Cc1ccccc1)(NC=O)c1ccccc1 (stereo not drawn) |
| 128 to 130 °C | Cc1c(F)cccc1NS(=O)(=O)c1cc(S(=O)(=O)Nc2cccc(F)c2C)c2cc(O)ccc2c1 |
| 224 to 226 °C | CC1(c2cccs2)Cc2cc(O)c(Cl)c(Cl)c2C1=O (stereo not drawn) |
| 170 to 172 °C | CCOC(=O)c1cc(C(=O)c2cccc(S(=O)(=O)F)c2)sc1N=Nc1ccc(O)c(N)n1 |
| 142 to 143 °C | CN1CC(O)C(O)C(O)C1CO (stereo not drawn) |
| 257 to 259 °C | CC(=O)N1CCN(c2ccc(-c3ccn[nH]3)cc2)CC1 |
| 143 °C | O=C(CCc1cccc2[nH]ccc12)c1ccccc1O |
| 153 to 156 °C | Cc1cnc(C2=NC(C)(C(C)C)C(=O)N2)c(C(=O)C(=O)N(C)c2ccccc2)c1 (stereo not drawn) |
| 135 to 137 °C | Oc1cc2c(cc1CNc1ccccc1)OCCC2 |

| melting point | Compound |
| --- | --- |
| 275 °C | O=C(c1cccnc1)c1ccc2c(c1)CN1C=CNC1=N2 |
| 62 to 64.5 °C | Cc1c(C)c2c(c(C)c1O)SC(C)(C)O2 |
| 118 to 120 °C | O=C(Cl)c1cc(Oc2ccc(C(F)(F)F)cc2Cl)ccc1[N+](=O)[O-] |
| 102 to 108 °C | [N-]=[N+]=C1c2ccccc2-c2ccc(Cl)cc21 |
| 78 °C | CCOC(=O)C(=CC=C(SC)C(=O)c1ccccc1)N(C)C |
| 272 to 273 °C | CCc1[nH]n(C2CCCC2)c2nc(-c3ccccc3O)nc(=O)c1-2 |
| 129 to 130 °C | CC1CN(C)N(c2cc(Cl)cc(Cl)c2)C(=O)N1 (stereo not drawn) |
| 129 to 130 °C | CCCc1oc(-c2ccccc2)nc1COc1ccc(COc2ccccc2CC(=O)O)cc1 |
| 215 to 217 °C | CCC(CC)Oc1cc(C)nc2c1nc(C)c(=O)n2-c1c(C)cc(C)cc1C |
| 251 to 253 °C | Cc1nnc(CNC(=O)CN2C(=O)c3ccccc3C2=O)n1-c1ccc(Cl)cc1C(=O)c1ccccc1 |
| 220 °C | O=C(CCCCl)Nc1n[nH]c2cc(Cl)ccc12 |
| 142 to 143 °C | COc1cc([N+](=O)[O-])c(C(=O)Cc2ccccc2)cc1O |
| 178 °C | C=CCOc1cc(C)c2c(C)cc(=O)oc2c1 |
| 198 to 200 °C | COc1cccc2c1C(=O)C(=O)N2 |
| 100 to 105 °C | CCCN(CCC)C(N)=C(C#N)C#N |
| 136 to 137 °C | CCCc1[nH]c2cc(C(=O)OC)ccc2c1C(=O)C1CCCCC1 |
| 158 to 160 °C | C=C(C)COc1ccc2c(C)cc(=O)oc2c1C(=O)C=Cc1ccccc1 |
| 238 to 239 °C | Cc1cc2ncn(Cc3ccc(N)cc3)c2cc1C |
| 128 to 129 °C | CCOC(=O)Cn1c(=S)c2ccccc2n(Cc2ccc(Cl)c(Cl)c2)c1=O |
| 178 to 179 °C | Fc1ccc(-c2ncn(C3CCNCC3)c2-c2cccnc2Oc2ccc(OCc3ccccc3)cc2)cc1 |
| 147 to 149 °C | CC(=O)c1cc(N(C)C)ccc1NC(=O)c1cccc(OCc2ccccc2)c1 |
| 77 to 80 °C | C=CCNc1nc(NCC=C)c2scc(C)c2n1 |
| 278 °C | CC(C)(C)SC[C@@H]1NC(=O)[C@@H](CSSC[C@@H]2NC(=O)[C@@H](CSC(C)(C)C)NC2=O)NC1=O |
| 114 to 115 °C | COc1cc(OC)c2c(=O)cc(-c3ccc(C(F)(F)F)cc3)oc2c1C1CCN(C)C1CO (stereo not drawn) |

| melting point | Compound |
| --- | --- |
| 176 to 178 °C | O=C1CCCc2sc(CCN3CCC(c4coc5cc(F)ccc45)CC3)cc2N1 |
| 119 °C | COc1ccc(C(=O)c2cc([N+](=O)[O-])ccc2N2CCC(C)CC2)cc1 |
| 175 °C | CCCCc1nc(-c2ccc(N3CCN(C(=O)c4ccccc4C(F)(F)F)CC3)nn2)no1 |
| 93 to 99 °C | CCc1c(-c2ccccc2)c2c(COCCCN3CCCCC3)cc3c(O)ccc1n32 |
| 118 to 119 °C | COc1cc(COc2nn(-c3ccc(C(F)(F)F)cc3)cc2/C=C/CO)ccc1OCc1nc(-c2ccccc2)oc1C |
| 242 to 245 °C | CCCc1nc2c(N)nc3cc(-c4cccc(S(C)(=O)=O)c4)ccc3c2s1 |
| 127 to 129 °C | CC(CC(=O)O)C(=O)c1ccc(N2CCOCC2)c([N+](=O)[O-])c1 (stereo not drawn) |
| 124 to 125 °C | O=C(CCCCl)c1cc2c(s1)SCCNC2=O |
| 90 to 91 °C | O=S(=O)(c1ccccc1)c1ccccn1 |
| 60 to 62 °C | CC(C)(C)c1cn(Cc2ccccc2)c([C@@H](Cc2c[nH]c3ccccc23)NCc2ccccc2)n1 |
| 172 to 174 °C | CN(C)C(=O)C1CCC2C(=O)N(c3ccccc3)C(=O)N12 (stereo not drawn) |
| 135 to 136 °C | CCOC(=O)C(CC(C)C)NC(=O)C(Cc1ccccc1)NC(=O)C(CCCCNC(=O)OCc1ccccc1)NC(=O)OC(C)(C)C (stereo not drawn) (Boc-Lys(Cbz)-Phe-Leu-OEt; configuration not given here) |
| 127 to 128 °C | CCc1nc2c(C)cc(C)nc2n1Cc1ccc(C(Cc2ccccc2)C(C(=O)O)C(=O)O)cc1 (stereo not drawn) |
| 206 to 209 °C | CN(Cc1ccc(CCn2cnc3cc(-c4ccc(Cl)cc4)sc3c2=O)cc1)C(=O)OC(C)(C)C |
| 167 to 168 °C | CCCOC(=O)C1=C(C)NC(C)=C(C(=O)OCC2CC2)C1c1cccc([N+](=O)[O-])c1 (stereo not drawn) |
| 143 to 144 °C | COC(=O)c1c(C(=O)OC)c2sc3ccccc3n2c1C |
| 85 to 86 °C | Clc1ccc2scc(Br)c2c1 |
| > 250 °C | CNc1nc(Br)cc(S(=O)(=O)c2ccc(N)cc2)n1 |
| 142 to 144 °C | COc1cc(C(=O)O)c(OC)c2ccccc12 |
| 160 to 161 °C | CCCCc1cc2ccccc2c(Oc2ccc(/C=C/C(=O)O)cc2)c1-c1ccccc1 |
| 146 °C | c1csc(-c2cc(-c3cccs3)ncn2)c1 |
| 205 to 210 °C | O=C(C#Cc1ccc(-c2ccc(Cl)cc2)cc1)Nc1ccc(CNCC2CCCCC2)cc1 |
| 176 to 177 °C | COc1cc2c(cc1O)CCN(C(=O)c1ccccc1OC)C2 |
| > 350 °C | N#CC1=C(NN)C(=O)NC1=O |

| melting point | Compound |
| --- | --- |
| 223 °C | COC(=Cc1ccc(-c2cccc(N(C)C(=O)Nc3ccccc3)c2)cc1)C(=O)O |
| 176 to 177 °C | CC(C)(C)OC(=O)NC(Cc1cc(C(=O)c2cc(C(F)(F)F)cc(C(F)(F)F)c2)ccc1[N+](=O)[O-])C(=O)OC(C)(C)C (stereo not drawn) |
| 186 to 189 °C | COC(=O)c1cc(Cl)cc2c1OC(C)C(=O)N2 (stereo not drawn) |
| 100 to 103 °C | CC(C)(C)OC(=O)Nc1ccc(-c2ccccc2F)cc1N |
| 166 to 168 °C | CCn1nc(C)c2nc(C)nc(NCCO)c21 |
| 133 to 135 °C | COc1ccc(C=CC(=O)O)cc1-c1cc2c(cc1OCCCCCC(N)=O)C(C)(C)CCC2(C)C |
| 196 °C | COc1c(C(C)C)cc(S(N)(=O)=O)c(C)c1C(=O)NCC1CCCN1C1CCCC1 (stereo not drawn) |
| 200 to 202 °C | CC(C)(C)c1ccc2c(c1)C=C(/C=C/C=C/C=C/C(=O)O)CO2 |
| 88 to 90 °C | COC(=O)C(Cc1ccc(OCCN(C)c2nc3ccccc3o2)cc1)Oc1ccc(Cl)cc1 (stereo not drawn) |
| 193 to 194 °C | COc1cccc(CNc2nc(SCc3ccccc3)nc3nc[nH]c23)c1O |
| 180 °C | Cc1nc2c3c(ccn2c1C)[C@@H](O)[C@@](C)(O)[C@@H](c1ccccc1)N3 |
| 103 to 105 °C | O=c1cc(NCCN2CCN(c3ccccc3F)CC2)cn[nH]1 |
| 119 °C | CC(C)S(=O)(=O)c1cnc2c(c1)nc(CC(C)(C)C)n2CCN(C)C |
| 126 to 128 °C | CCC1C(C)=NN=C(c2ccc(OC)c(OC)c2)c2cc(OC)c(OCCCN(C)C)cc21 (stereo not drawn) |
| 143 to 144 °C | COc1cc(-c2nc(N)sc2CSC2CCCCC2)c(OC)cc1C |
| 152 to 156 °C | CCOCc1nc2c(N)nc3cc(-c4ccccc4)ccc3c2n1CC(C)(C)NC(=O)NC1CCCCC1 |
| 170 to 172 °C | CNC(=O)c1ccccc1Nc1nc(Nc2ccc3c(c2)CCCCN3C)ncc1Cl |
| 220 to 222 °C | CC(C)(C)c1cc(C2N(c3ccc(Cl)cc3)CCN2c2ccc(Cl)cc2)cc(C(C)(C)C)c1O |
| 45.9 to 50.8 °C | CCCCCCCCCCCCCCCCC[C@@H]1OC[C@@H](COCCCCCCCCOS(=O)(=O)c2ccc(C)cc2)O1 (relative stereo) |
| 221 to 224 °C | CC1(C)CC(Oc2ccc(O)nn2)c2cc(C#N)ccc2O1 (stereo not drawn) |
| 104 to 106 °C | CC(C)(C)OC(=O)NCC1(C(=O)O)CC1 |
| 179 to 185 °C | Cn1nc(-c2c(F)cccc2Cl)nc1-c1ccc(Cc2ccc(Cl)c(Cl)c2)c(Cl)c1 |

| Compound | melting point |
| --- | --- |
| O=[N+]([O-])N=c1ccccn1Cc1ccc(Cl)nc1 | 209 to 212 °C |
| CC(=O)Nc1ccc(C#Cc2ccc(OC3CN4CCC3CC4)nn2)cc1 (stereo not drawn) | 170 to 175 °C |
| COc1cc2cc(C(=O)N3CC(COS(C)(=O)=O)c4c3cc([N+](=O)[O-])c3ccccc43)[nH]c2c(OC)c1OC (stereo not drawn) | 214 °C |
| NCc1nnc2n1-c1ccc(Cl)cc1C(c1ccccc1F)=CC2 | 188 to 190 °C |
